Reference: patent EP4650353A1 (Shanghai Institute of Materia Medica, Chinese Academy of …, priority 2023, dated 2024)

molecular target: T1, human GLP-1 receptor (Homo sapiens, UniProt P43220); test: GLP-1 receptor-mediated agonist activity: cAMP level in hGLP-1R/HEK293 cell line (HTRF); type: cell-based; conditions: cAMP levels in hGLP-1R/HEK293 cell line; Table 1; read-out: determined EC50
T1 construct: HA (N); expressed in transfected cells
T1 sequence (P43220 24-463): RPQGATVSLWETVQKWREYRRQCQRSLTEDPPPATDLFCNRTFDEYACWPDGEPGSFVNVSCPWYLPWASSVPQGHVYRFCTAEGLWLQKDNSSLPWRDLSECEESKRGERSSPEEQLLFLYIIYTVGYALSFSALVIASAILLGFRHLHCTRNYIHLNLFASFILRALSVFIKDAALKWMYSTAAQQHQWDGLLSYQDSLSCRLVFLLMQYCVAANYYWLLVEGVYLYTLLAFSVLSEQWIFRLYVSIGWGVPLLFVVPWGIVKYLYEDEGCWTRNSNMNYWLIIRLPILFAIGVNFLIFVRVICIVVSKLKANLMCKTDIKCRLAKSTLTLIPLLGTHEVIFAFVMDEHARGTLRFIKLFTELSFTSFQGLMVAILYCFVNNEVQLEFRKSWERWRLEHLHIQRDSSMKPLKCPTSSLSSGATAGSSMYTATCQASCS

Structure (SMILES) | EC50
CCOc1cc(C(=O)O)cc2c1nc(CN1CCC(c3cccc(OCc4ccc(Cl)cc4F)n3)CC1)n2C[C@@H]1CCO1 [Compound 29, (S)-2-((4-(6-((4-chloro-2-fluorobenzyl)oxy)pyridin-2-yl)piperidin-1-yl)methyl)-4-ethoxy-1-(oxetan-2-ylmethyl)-1H-benzo[d]imidazole-6-carboxylic acid] | 2.2 pM
[2H]C([2H])([2H])Oc1cc(C(=O)O)cc2c1nc(CN1CCN(c3cccc4c3OC(C)(c3ccc(C(F)(F)F)cc3OC)O4)C=N1)n2C[C@@H]1CCO1 (stereo partly drawn) [Compound 89, 4-(Methoxy-d3)-2-((4-(2-(2-methoxy-4-(trifluoromethyl)phenyl)-2-methylbenzo[d][1,3]dioxol-4-yl)-5,6-dihydro-1,2,4-triazin-1(4H)-yl)methyl)-1-(((S)-oxetan-2-yl)methyl)-1H-benzo[d]imidazole-6-carboxylic acid] | 7.5 pM
CCOc1cc(C(=O)O)cc2c1nc(CN1CCC(c3cccc4c3OC(C)(c3ccc(C(F)(F)F)cc3F)O4)CC1)n2C[C@@H]1CCO1 (stereo partly drawn) [Compound 54, 4-ethoxy-2-((4-(2-(2-fluoro-4-(trifluoromethyl)phenyl)-2-methylbenzo[d][1,3]dioxol-4-yl)piperidin-1-yl)methyl)-1-(((S)-oxetan-2-yl)methyl)-1H-benzo[d]imidazole-6-carboxylic acid] | 7.7 pM
COc1cc(C(=O)O)cc2c1nc(CN1CCC(c3ccccc3OCc3ccc(C#N)c4c3OCC4)CC1)n2C[C@@H]1CCO1 [Compound 46, (S)-2-((4-(2-((4-cyano-2,3-dihydrobenzofuran-7-yl)methoxy)phenyl)piperidin-1-yl)methyl)-4-methoxy-1-(oxetan-2-ylmethyl)-1H-benzo[d]imidazole-6-carboxylic acid] | 42.2 pM
CCOc1cc(C(=O)O)cc2c1nc(CN1CCN(c3cccc4c3OC(C)(c3ccc(F)cc3F)O4)C=N1)n2C[C@@H]1CCO1 (stereo partly drawn) [Compound 86, 2-((4-(2-(2,4-difluorophenyl)-2-methylbenzo[d][1,3]dioxol-4-yl)-5,6-dihydro-1,2,4-triazin-1(4H)-yl)methyl)-4-ethoxy-1-(((S)-oxetan-2-yl)methyl)-1H-benzo[d]imidazole-6-carboxylic acid] | 28.9 pM
CCOc1cc(C(=O)O)cc2c1nc(CN1CCC(c3cccnc3OCc3ccc(C#N)cc3F)CC1)n2C[C@@H]1CCO1 [Compound 33, (S)-2-((4-(2-((4-cyano-2-fluorobenzyl)oxy)pyridin-3-yl)piperidin-1-yl)methyl)-4-ethoxy-1-(oxetan-2-ylmethyl)-1H-benzo[d]imidazole-6-carboxylic acid] | 46.7 pM
[2H]C([2H])([2H])C([2H])([2H])Oc1cc(C(=O)O)cc2c1nc(CN1CCN(c3cccc4c3OC(C)(c3cc(F)c(Cl)cc3F)O4)C=N1)n2C[C@@H]1CCO1 (stereo partly drawn) [Compound 80, 2-((4-(2-(4-chloro-2,5-difluorophenyl)-2-methylbenzo[d][1,3]dioxol-4-yl)-5,6-dihydro-1,2,4-triazin-1(4H)-yl)methyl)-4-(ethoxy-d5)-1-(((S)-oxetan-2-yl)methyl)-1H-benzo[d]imidazole-6-carboxylic acid] | 43.8 pM
COc1cc(Cl)ccc1C1(C)Oc2cccc(C3CCN(Cc4nc5c(OC)cc(C(=O)O)cc5n4C[C@@H]4CCO4)CC3)c2O1 (stereo partly drawn) [Compound 57, 2-((4-(2-(4-chloro-2-methoxyphenyl)-2-methylbenzo[d][1,3]dioxol-4-yl)piperidin-1-yl)methyl)-4-methoxy-1-(((S)-oxetan-2-yl)methyl)-1H-benzo[d]imidazole-6-carboxylic acid] | 2.8 pM
[2H]C([2H])([2H])C([2H])([2H])Oc1cc(C(=O)O)cc2c1nc(CN1CCC(c3cccc4c3OC(C)(c3ccc(Cl)cc3F)O4)CC1)n2C[C@@H]1CCO1 (stereo partly drawn) [Compound 75, 2-((4-(2-(4-chloro-2-fluorophenyl)-2-methylbenzo[d][1,3]dioxol-4-yl)piperidin-1-yl)methyl)-4-(ethoxy-d5)-1-(((S)-oxetan-2-yl)methyl)-1H-benzo[d]imidazole-6-carboxylic acid] | 3 pM

Next, values leading:

EC50 | Structure (SMILES)
8.5 pM | COc1cc(C(=O)O)cc2c1nc(CN1CCN(c3cccc(OCc4ccc(C(F)(F)F)cc4F)n3)C=N1)n2C[C@@H]1CCO1 [Compound 22, (S)-2-((4-(6-((2-fluoro-4-(trifluoromethyl)benzyl)oxy)pyridin-2-yl)-5,6-dihydro-1,2,4-triazin-1(4H)-yl)methyl)-4-methoxy-1-(oxetan-2-ylmethyl)-1H-benzo[d]imidazole-6-carboxylic acid]
4.8 pM | COc1cc(C(=O)O)cc2c1nc(CN1CCC(c3cccc(OCc4ccc(C#N)cc4F)n3)CC1)n2C[C@@H]1CCO1 [Compound 1, (S)-2-((4-(6-((4-cyano-2-fluorobenzyl)oxy)pyridin-2-yl)piperidin-1-yl)methyl)-4-methoxy-1-(oxetan-2-ylmethyl)-1H-benzo[d]imidazole-6-carboxylic acid]
7.4 pM | CCOc1cc(C(=O)O)cc2c1nc(CN1CCC(c3cccc(OCc4ccc(C(F)(F)F)cc4F)n3)CC1)n2C[C@@H]1CCO1 [Compound 28, (S)-4-ethoxy-2-((4-(6-((2-fluoro-4-(trifluoromethyl)benzyl)oxy)pyridin-2-yl)piperidin-1-yl)methyl)-1-(oxetan-2-ylmethyl)-1H-benzo[d]imidazole-6-carboxylic acid]
6.1 pM | CCOc1cc(C(=O)O)cc2c1nc(CN1CCN(c3cccc4c3OC(C)(c3ccc(C(F)(F)F)cc3OC)O4)C=N1)n2C[C@@H]1CCO1 (stereo partly drawn) [Compound 90, 4-ethoxy-2-((4-(2-(2-methoxy-4-(trifluoromethyl)phenyl)-2-methylbenzo[d][1,3]dioxol-4-yl)-5,6-dihydro-1,2,4-triazin-1(4H)-yl)methyl)-1-(((S)-oxetan-2-yl)methyl)-1H-benzo[d]imidazole-6-carboxylic acid]
9.6 pM | COc1cc(C(=O)O)cc2c1nc(CN1CCN(c3cccc(OCc4ccc(Cl)cc4F)n3)CC1)n2C[C@@H]1CCO1 [Compound 30, (S)-2-((4-(6-((4-chloro-2-fluorobenzyl)oxy)pyridin-2-yl)piperazin-1-yl)methyl)-4-methoxy-1-(oxetan-2-ylmethyl)-1H-benzo[d]imidazole-6-carboxylic acid]
5.3 pM | CCOc1cc(C(=O)O)cc2c1nc(CN1CCN(c3cccc(OCc4ccc(C(F)(F)F)cc4F)n3)C=N1)n2C[C@@H]1CCO1 [Compound 24, (S)-4-ethoxy-2-((4-(6-((2-fluoro-4-(trifluoromethyl)benzyl)oxy)pyridin-2-yl)-5,6-dihydro-1,2,4-triazin-1(4H)-yl)methyl)-1-(oxetan-2-ylmethyl)-1H-benzo[d]imidazole-6-carboxylic acid]
1.2 pM | CCOc1cc(C(=O)O)cc2c1nc(CN1CCC(c3cccc(OCc4ccc(C(F)(F)F)cc4OC)n3)CC1)n2C[C@@H]1CCO1 [Compound 52, (S)-4-ethoxy-2-((4-(6-((2-methoxy-4-(trifluoromethyl)benzyl)oxy)pyridin-2-yl)piperidin-1-yl)methyl)-1-(oxetan-2-ylmethyl)-1H-benzo[d]imidazole-6-carboxylic acid]

same assay, conditions: cAMP levels of the hGLP-1R/HEK293 cell line; Table 2, comparison with reference compounds; read-out: EC50

EC50 | Structure (SMILES)
26.1 pM | N#Cc1ccc(COc2cccc(C3CCN(Cc4nc5c(F)cc(C(=O)O)cc5n4C[C@@H]4CCO4)CC3)n2)c(F)c1 [WO2022109182 , Example 21, reference compound]
137 pM | CC1(c2ccc(Cl)cc2F)Oc2cccc(N3C=NN(Cc4nc5ccc(C(=O)O)cc5n4C[C@@H]4CCO4)CC3)c2O1 (stereo partly drawn) [CN2022114139828 , Compound 37, reference compound]
